Data published in ChEMBL document CHEMBL5131568, “Discovery of an Oral, Rule of 5 Compliant, Interleukin 17A Protein-Protein Interaction Modulator for the Potential Treatment of Psoriasis and Other Inflammatory Diseases” (J Med Chem, 2022).
In brackets after ≈: the same amount, converted by molar mass.

Tests used:
[1] = Metabolic stability in human liver microsomes assessed as apparent clearance at 0.5 uM measured upto 40 mins in presence of NADPH by LCMS/MS analysis; type: ADME, Microsome; settings: read-out: CLH
[2] = Inhibition of IL-8 release in non-glycosylated IL-17A/TNFalpha-stimulated human HEKa incubated for 72 hrs under serum free medium by AlphaLISA; type: functional, cell-based
[3] = Inhibition of IL-8 release in glycosylated IL-17A/TNFalpha-stimulated human HEKa incubated for 72 hrs under serum free medium by AlphaLISA; type: functional, cell-based
[4] = biological target: T1, Interleukin-17A (Homo sapiens, UniProt Q16552); assay: Binding affinity to human IL-17A assessed as thermal stability by measuring increase in unfolding temperature by differential scanning fluorimetry
T1 sequence (Q16552 whole entry): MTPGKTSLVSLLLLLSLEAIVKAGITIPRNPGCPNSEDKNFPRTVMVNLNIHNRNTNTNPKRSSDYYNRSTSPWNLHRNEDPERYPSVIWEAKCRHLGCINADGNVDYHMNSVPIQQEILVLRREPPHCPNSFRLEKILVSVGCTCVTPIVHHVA

[5] = Apparent permeability of compound in human Caco2 cells from apical to basal; type: ADME, cell-based; settings: Caco-2
[6] = Protein binding in human plasma assessed as unbound fraction at 1 uM by LCMS/MS analysis; type: ADME, cell-free
[7] = Solubility in phosphate buffer at pH 6.5 measured after 24 hrs by HPLC-UV analysis; type: physicochemical
[8] = Clearance in Sprague-Dawley rat at 0.1 mg/kg, iv measured upto 24 hrs by LCMS/MS analysis; type: ADME, organism-based; settings: in vivo
[9] = Oral bioavailability in Sprague-Dawley rat at 2.6 mg/kg measured upto 24 hrs by LCMS/MS analysis; type: ADME, organism-based; settings: in vivo
[10] = biological target: Voltage-gated inwardly rectifying potassium channel KCNH2 (Homo sapiens, UniProt Q12809); assay: Inhibition of human ERG; type: toxicity
Sequence of Voltage-gated inwardly rectifying potassium channel KCNH2 (Q12809 whole entry): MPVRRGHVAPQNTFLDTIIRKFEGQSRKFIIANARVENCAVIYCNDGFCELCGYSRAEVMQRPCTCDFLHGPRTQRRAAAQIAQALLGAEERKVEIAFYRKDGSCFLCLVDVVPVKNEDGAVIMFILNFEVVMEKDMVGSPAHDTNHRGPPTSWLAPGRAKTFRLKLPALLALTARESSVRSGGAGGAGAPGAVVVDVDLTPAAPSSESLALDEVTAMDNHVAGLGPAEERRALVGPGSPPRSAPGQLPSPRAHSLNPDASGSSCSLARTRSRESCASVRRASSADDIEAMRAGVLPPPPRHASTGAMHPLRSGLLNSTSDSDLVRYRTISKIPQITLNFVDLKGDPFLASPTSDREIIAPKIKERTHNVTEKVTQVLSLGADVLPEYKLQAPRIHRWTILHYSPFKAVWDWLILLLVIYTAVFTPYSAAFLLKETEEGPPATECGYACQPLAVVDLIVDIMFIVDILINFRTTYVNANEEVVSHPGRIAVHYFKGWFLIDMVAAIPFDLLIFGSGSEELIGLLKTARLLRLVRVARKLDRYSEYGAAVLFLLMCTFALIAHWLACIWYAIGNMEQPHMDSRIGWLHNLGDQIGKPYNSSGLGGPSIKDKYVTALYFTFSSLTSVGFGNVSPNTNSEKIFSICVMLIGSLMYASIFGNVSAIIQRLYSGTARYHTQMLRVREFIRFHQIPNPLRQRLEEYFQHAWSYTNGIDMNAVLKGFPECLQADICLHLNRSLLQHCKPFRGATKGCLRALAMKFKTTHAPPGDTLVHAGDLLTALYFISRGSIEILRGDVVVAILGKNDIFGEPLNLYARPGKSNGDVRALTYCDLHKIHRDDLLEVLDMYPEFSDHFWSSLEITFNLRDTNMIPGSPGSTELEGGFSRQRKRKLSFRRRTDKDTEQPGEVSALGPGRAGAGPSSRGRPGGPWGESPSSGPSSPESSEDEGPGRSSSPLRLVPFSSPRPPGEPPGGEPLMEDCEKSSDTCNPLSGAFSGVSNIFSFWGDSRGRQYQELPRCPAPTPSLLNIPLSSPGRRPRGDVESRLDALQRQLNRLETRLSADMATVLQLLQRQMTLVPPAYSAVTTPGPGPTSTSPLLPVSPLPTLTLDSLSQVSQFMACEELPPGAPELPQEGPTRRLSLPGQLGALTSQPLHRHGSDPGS

[11] = Volume of distribution at steady state in Sprague-Dawley rat at 0.1 mg/kg, iv measured upto 24 hrs by LCMS/MS analysis; type: ADME, organism-based; settings: in vivo, read-out: Vdss
[12] = Solubility in phosphate buffer at pH 2 measured after 24 hrs by HPLC-UV analysis; type: physicochemical
[13] = Half life in Sprague-Dawley rat at 0.1 mg/kg, iv measured upto 24 hrs by LCMS/MS analysis; type: ADME, organism-based; settings: in vivo
[14] = Solubility in phosphate buffer at pH 7.4 measured after 24 hrs by HPLC-UV analysis; type: physicochemical
[15] = Apparent permeability of compound in human Caco2 cells from basal to apical; type: ADME, cell-based; settings: Caco-2
[16] = Inhibition of IL-8 release in glycosylated IL-17A/TNFalpha-stimulated human HEKa cells at 10 uM incubated for 72 hrs under serum free medium by AlphaLISA; type: functional
[17] = Inhibition of IL-8 release in non-glycosylated IL-17A/TNFalpha-stimulated human HEKa cells at 6 uM incubated for 72 hrs under serum free medium by AlphaLISA; type: functional
[18] = Inhibition of IL-8 release in non-glycosylated IL-17A/TNFalpha-stimulated human HEKa cells at 0.6 uM incubated for 72 hrs under serum free medium by AlphaLISA; type: functional

CLint scaled at 0.5 µM [1] [mL/min/kg] | EC50 [2] [nM] | Compound | other results
9 | 10 | Cc1n[nH]c(C)c1-c1ccc(NC(=O)[C@@H](NC(=O)c2ccnn2C)C(C2CCC2)C2CCC2)cc1 | –
57 | 935 | Cc1n[nH]c(C)c1-c1ccc(NC(=O)[C@H](CC2CCCCC2)NC(=O)c2ccnn2C)cc1 | –
< 8 | 53 | Cc1n[nH]c(C)c1-c1ccc(NC(=O)[C@@H](NC(=O)c2ccnn2C)C(C2CC2)C2CC2)cc1 | –
105 | 36 | Cc1n[nH]c(C)c1-c1ccc(NC(=O)[C@@H](NC(=O)c2ccnn2C)C2CCCCCC2)cc1 | –
< 8 | 296 | Cc1n[nH]c(C)c1-c1ccc(NC(=O)C(NC(=O)c2ccnn2C)C2CCC3(CC2)CC3)cc1 (stereo not given) | –
44 | 5.5 | CCn1nccc1C(=O)N[C@H](C(=O)Nc1ccc(-c2c(C)n[nH]c2C)cc1)C(C1CCC1)C1CCC1 | –
< 8 | 208 | Cc1n[nH]c(C)c1-c1ccc(NC(=O)[C@@H](NC(=O)c2ccnn2C)C2CCCCC2)cc1 | –
< 8 | 50 | Cc1n[nH]c(C)c1-c1ccc(NC(=O)[C@@H](NC(=O)c2ccnn2C)[C@H]2CC[C@H](C)CC2)cc1 | –

The next lines start with the molecule.

Compound | CLint scaled at 0.5 µM [1] [mL/min/kg] | EC50 [2] [nM] | other results
Cc1n[nH]c(C)c1-c1ccc(NC(=O)[C@H](Cc2ccccc2Cl)NC(=O)c2ccnn2C)cc1 | 24 | 1100 | –
Cn1nccc1C(=O)N[C@H](C(=O)Nc1ccc(-c2cn[nH]c2)cc1)C(c1ccccc1)c1ccccc1 | < 8 | – | EC50 [3]: 3380 nM
O=C1CNC(=O)[C@@H](Cc2ccc(NC(=O)[C@H](Cc3ccccc3Cl)NC(=O)Cc3ccccc3)cc2)NC(=O)CC2(CCCC2)CC(=O)NCCCCCN1 | > 200 | 151 | EC50 [3]: 1920 nM
Cc1n[nH]c(C)c1-c1ccc(NC(=O)[C@@H](NC(=O)c2ccnn2C(C)C)C(C2CC2)C2CC2)cc1 | < 8 | 15 | Kd [4]: 32 nM; Papp A→B [5]: 38 ×10⁻⁶ cm/s; fraction unbound at 1 µM [6]: 0.017; solubility at 24 h [7]: < 1 µg/mL; clearance [8]: 7.4 mL/min/kg; bioavailability [9]: 100%; IC50 [10]: > 30 µM; Vd [11]: 2.6 L/kg; solubility at 24 h [12]: 40 µg/mL (≈ 84.3 µM); half-life [13]: 222 min; solubility at 24 h [14]: < 1 µg/mL; Papp B→A [15]: 26 ×10⁻⁶ cm/s
CN(C)C(=O)c1ccc(NC(=O)[C@@H](NC(=O)c2ccnn2C)C(c2ccccc2)c2ccccc2)cc1 | < 8 | 5610 | inhibition at 10 µM [16]: 52%
Cn1cnnc1-c1ccc(NC(=O)[C@@H](NC(=O)c2ccnn2C)C(c2ccccc2)c2ccccc2)cc1 | < 8 | – | inhibition at 10 µM [16]: 47%
Cc1n[nH]c(C)c1-c1ccc(NC(=O)[C@@H](NC(=O)c2ccnn2C)C(c2ccccc2)c2ccccc2)cc1 | < 8 | – | EC50 [3]: 117 nM; Papp A→B [5]: 16 ×10⁻⁶ cm/s; fraction unbound at 1 µM [6]: 0.0011; solubility at 24 h [7]: < 1 µg/mL; clearance [8]: 7 mL/min/kg; bioavailability [9]: 26%; Vd [11]: 2 L/kg; solubility at 24 h [12]: 25 µg/mL (≈ 48.2 µM); half-life [13]: 192 min; solubility at 24 h [14]: < 1 µg/mL; Papp B→A [15]: 21 ×10⁻⁶ cm/s
CCn1nccc1C(=O)N[C@H](C(=O)Nc1ccc(-c2c(C)n[nH]c2C)cc1)C(C1CC1)C1CC1 | < 8 | 26 | –
CC(C)[C@H](NC(=O)COCCNC(=O)OC(C)(C)C)C(=O)N[C@@H](CC(=O)O)Cc1ccc(NC(=O)[C@H](Cc2ccccc2Cl)NC(=O)C(F)(F)c2ccccc2)cc1 | 33 | 575 | –
Cc1ncn(C)c1-c1ccc(NC(=O)[C@@H](NC(=O)c2ccnn2C)C(c2ccccc2)c2ccccc2)cc1 | 94 | – | EC50 [3]: 304 nM
Cc1n[nH]c(C)c1-c1ccc(NC(=O)[C@H](Cc2ccccc2)NC(=O)c2ccnn2C)cc1 | 12 | – | inhibition at 6 µM [17]: 37%
Cc1n[nH]c(C)c1-c1ccc(NC(=O)[C@@H](NC(=O)c2ccnn2C)c2ccccc2)cc1 | < 8 | – | inhibition at 0.6 µM [18]: 28%
Cc1[nH]ncc1-c1ccc(NC(=O)[C@@H](NC(=O)c2ccnn2C)C(c2ccccc2)c2ccccc2)cc1 | < 8 | – | EC50 [3]: 385 nM
Cc1n[nH]c(C)c1-c1ccc(NC(=O)[C@@H](NC(=O)c2ccnn2C(C)C)C(C2CCC2)C2CCC2)cc1 | 52 | 4.5 | –
Cn1cncc1-c1ccc(NC(=O)[C@@H](NC(=O)c2ccnn2C)C(c2ccccc2)c2ccccc2)cc1 | 21 | – | EC50 [3]: 947 nM
